Data on 25 compounds can be found in patent US7531573B2 (priority 1994, dated 2009).

The test system of data set [1] is NIH 3T3 mouse fibroblast cells. The data set can be described thus: Mitogen-induced cell proliferation. Type of data set: cell-based. The following applies: for inhibition at 10 µM: NIH3T3, read-out: Mitogen-induced cell proliferation % Inhibition; for IC50: NIH3T3, read-out: Mitogen-induced cell proliferation IC50. An excerpt: Other cell lines, e.g., cancer cells, endothelial cells and fibroblasts, as well as many others, may be used in the cell proliferation assay. Selection of a particular cell line will depend in part on the desired application, and is well within the capabilities of an ordinarily skilled artisan.

Data set [2] has as its target Gardos channel of erythrocytes (Homo sapiens, UniProt O15554). The data set can be described thus: cell-based. The following applies: for inhibition at 10 µM: read-out: Gardos Channel % Inhibition.
A short description of data set [3]: clinical. The note with it: human, in vivo, read-out: Levels Plasma; for concentration at 6 day of CLT dosing: CLT day 6; for concentration at 10 day (wash-out): Wash-out day 10; for concentration at 13 day (wash-out): Wash-out day 13; for concentration at 20 day (wash-out): Wash-out day 20. Type of data set: in vivo.
Where [4] appears, read: erythrocytes, read-out: Gardos Channel IC50.

Like-named read-outs stand apart in the source and are kept apart here.
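Wherever Levels Plasma is given: oral tablet given every 12 h for six days, about 14 mg/kg per day for this subject, with levels then followed in plasma.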

Chain of Gardos channel of erythrocytes (O15554 whole entry): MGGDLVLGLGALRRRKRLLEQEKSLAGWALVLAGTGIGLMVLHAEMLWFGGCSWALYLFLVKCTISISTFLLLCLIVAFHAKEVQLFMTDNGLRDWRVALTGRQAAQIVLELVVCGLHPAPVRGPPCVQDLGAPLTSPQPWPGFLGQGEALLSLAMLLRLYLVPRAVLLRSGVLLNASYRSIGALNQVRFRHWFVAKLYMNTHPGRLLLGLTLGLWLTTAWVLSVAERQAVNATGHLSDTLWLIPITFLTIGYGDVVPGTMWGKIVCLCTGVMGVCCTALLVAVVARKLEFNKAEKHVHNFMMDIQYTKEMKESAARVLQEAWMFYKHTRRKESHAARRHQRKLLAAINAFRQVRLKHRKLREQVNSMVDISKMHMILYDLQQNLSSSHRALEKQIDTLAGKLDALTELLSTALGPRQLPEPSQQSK

Compound `O=CC(c1ccccc1)(c1ccccc1)c1ccccc1Cl` [Compound 15, 2-chlorophenyl-diphenylacetaldehyde] gave a melting point of 126 to 129 °C. Moreover, in data set [1], the inhibition at 10 µM stood at 88.6% and the IC50 worked out at 2600 nM. The IC50 in data set [2] (setting [4]) was 96.8 nM. For the same compound, the inhibition at 10 µM in data set [2] came out at 100%.
The corresponding values for `O=CC(c1ccccc1)(c1ccccc1)c1ccccc1` [Compound 16, triphenylacetaldehyde] are 91 to 96 °C, 99.4%, 400 to 2000 nM, 87 nM and 98%.
In turn, `Clc1ccccc1C(c1ccccc1)c1ccccc1` [Compound 17, 2-chlorophenyl-diphenylmethane] gave a melting point of 74 to 76 °C. Further, in data set [1], the inhibition at 10 µM is 91.8% and the IC50 came to 3900 nM. In addition, in data set [2], the IC50 turned out to be 860 nM and the inhibition at 10 µM turned out to be 100%. Further, in data set [3] (500 mg, Subject A), the concentration at 6 day of CLT dosing worked out at 1800 nM, the concentration at 10 day (wash-out) is less than 100 nM, the concentration at 13 day (wash-out) was 0 nM and the concentration at 20 day (wash-out) stood at 0 nM. For the same compound, the concentration at 6 day (wash-out) in data set [3] (500 mg, Subject A, Wash-out day 6) was less than 100 nM. The concentration at 3 day of CLT dosing in data set [3] (500 mg, Subject B, CLT day 3) worked out at 1650 nM. Further, in data set [3] (500 mg, Subject B), the concentration at 6 day of CLT dosing worked out at 2500 nM, the concentration at 10 day (wash-out) is less than 100 nM, the concentration at 13 day (wash-out) is 0 nM and the concentration at 20 day (wash-out) came to 0 nM. In data set [3] (500 mg, Subject B, Wash-out day 8), the concentration at 8 day (wash-out) is less than 100 nM. Further, the concentration at 3 day of CLT dosing in data set [3] (Subject A, CLT day 3, oral CLT 500 mg every twelve hours) was 700 nM.
In turn, `NC(=O)CC(c1ccc(Cl)cc1)(c1ccc(Cl)cc1)c1ccc(Cl)cc1` [Compound 30, tris(4-chlorophenyl)propionamide] returned a melting point of 158 to 160 °C. In data set [1], the inhibition at 10 µM worked out at 99% and the IC50 was determined as 900 nM. Besides, in data set [2], the IC50 was 272 nM and the inhibition at 10 µM stood at 97%.
In the case of `N#CC(c1ccccc1)(c1ccccc1)c1ccccc1F` [Compound 32, (2-fluorophenyl)-diphenylacetonitrile], the melting point was in the range of 144 to 145 °C. For the same compound, in data set [1], the inhibition at 10 µM came to 54%. Also, in data set [2], the IC50 amounted to 68 nM and the inhibition at 10 µM was determined as 95.7%.
As to `O=C(O)CC(c1ccccc1)(c1ccccc1)c1ccccc1Cl` [Compound 36, 3-(2-chlorophenyl)-3,3-diphenylpropionic acid], the melting point fell in the range of 180 to 182 °C. Also, in data set [1], the inhibition at 10 µM is 92% and the IC50 came to 600 nM. Further, the IC50 in data set [2] (setting [4]) is 3110 nM. Also, the inhibition at 10 µM in data set [2] was found to be 78.6%.
`OC(c1ccccc1)(c1ccccc1)c1ccc(C(F)(F)F)cc1` [Compound 68]: in data set [1], the inhibition at 10 µM came to 98% and the IC50 came to 3100 nM. In data set [2], the IC50 was 236 nM and the inhibition at 10 µM was 97.5%.
Regarding `O=C(CBr)C(c1ccccc1)(c1ccccc1)c1ccccc1` [Compound 69], the inhibition at 10 µM was 99% in data set [1] and 100% in data set [2]. The IC50 in data set [2] (setting [4]) came out at 25 nM.
As to `N#CCc1ccc([Si](c2ccccc2)(c2ccccc2)c2ccccc2)cc1` [Compound 71], in data set [1], the inhibition at 10 µM was 97% and the IC50 is 1100 nM. Also, the inhibition at 10 µM in data set [2] worked out at 0.4%.
For the compound `OCCCC[Si](c1ccccc1)(c1ccccc1)c1ccccc1` [Compound 73], in data set [1], the inhibition at 10 µM worked out at 99% and the IC50 worked out at 2500 nM. Besides, in data set [2], the IC50 was found to be 371 nM and the inhibition at 10 µM is 98.9%.
Take `O=C(O)CCC(c1ccccc1)(c1ccccc1)c1ccccc1` [Compound 74]: the figures for the inhibition at 10 µM in data set [1] and in data set [2] were 70% and 97.5%, respectively. Also, the IC50 in data set [2] (setting [4]) stood at 1400 nM.
The compound `NC(=O)C(c1ccccc1)(c1ccccc1)c1ccccc1Cl` [Compound 75, (2-chlorophenyl)-diphenylacetamide] yielded a melting point of 197 to 198.5 °C. In addition, in data set [1], the inhibition at 10 µM worked out at 90%. In data set [2] (setting [4]), the IC50 is 6 nM. In data set [2], the inhibition at 10 µM came out at 98%.
`NC(=O)CCC(c1ccccc1)(c1ccccc1)c1ccccc1` [Compound 78]: the inhibition at 10 µM is 72% in data set [1] and 95% in data set [2]. In data set [2] (setting [4]), the IC50 was 220 nM.
In the case of `O=CCC(c1ccccc1)(c1ccccc1)c1ccccc1Cl` [Compound 79, 3-(2′-chlorophenyl)-3,3-diphenylpropanal], the melting point lay within 92 to 93 °C. For the same compound, in data set [1], the inhibition at 10 µM came to 99% and the IC50 was found to be 2700 nM. Also, the IC50 in data set [2] (setting [4]) is 83 nM. Besides, the inhibition at 10 µM in data set [2] came to 96%.
`O=C(O)C(c1ccccc1)(c1ccccc1)c1ccccc1Cl` [Compound 80]: the figures for the inhibition at 10 µM in data set [1] and in data set [2] were 62% and 97%, respectively. Besides, the IC50 in data set [2] (setting [4]) amounted to 206 nM.
The corresponding values for `COc1ccc(C(O)(c2ccccc2)c2ccccc2Cl)cc1` (stereo not shown) [Compound 81] are 53%, 100% and 187 nM.
`CC(=O)CC(c1ccccc1)(c1ccccc1)c1ccccc1Cl` [Compound 82, 4-(2-chlorophenyl)-4,4-diphenyl-2-butanone]: the inhibition at 10 µM came to 98% in data set [1] and 99.5% in data set [2]. In addition, the IC50 was 5000 nM in data set [1] and 27 nM in data set [2] (setting [4]).
The corresponding values for `COc1ccc(C(c2ccccc2)c2ccccc2Cl)cc1` (stereo not shown) [Compound 83] are 80%, 96.7%, 6400 nM and 918 nM.
Consider `Oc1ccc(C(O)(c2ccccc2)c2ccccc2Cl)cc1` (stereo not drawn) [Compound 84, α-(2-chlorophenyl)-α-(4-hydroxyphenyl)benzyl alcohol], for which the melting point is 56.5 to 60 °C. In data set [1], the inhibition at 10 µM is 99% and the IC50 was found to be 1000 nM. Also, in data set [2], the IC50 came to 1270 nM and the inhibition at 10 µM stood at 95.3%.
For `Oc1ccc(C(c2ccccc2)c2ccccc2Cl)cc1` (stereo not shown) [Compound 85], the inhibition at 10 µM in data set [1] stood at 91%; in data set [2] it was 98%. Moreover, the IC50 in data set [1] was 7000 nM; in data set [2] (setting [4]), 739 nM.
As to `Cc1ccc(C(c2cc(Cl)ccc2N)c2ccccc2Cl)cc1` (stereo not shown) [Compound 86], the values for the inhibition at 10 µM in data set [1] and in data set [2] were 99% and 93.9%, respectively. In addition, the IC50 is 2400 nM in data set [1] and 237 to 455 nM in data set [2] (setting [4]).
The corresponding values for `CCOC(=O)C(c1ccccc1)(c1ccccc1)N1CCCCC1` [Compound 87] are 96%, 99%, 2200 nM and 68 nM.
With `OC(c1ccccc1)(c1ccccc1)C1CCCCC1` [Compound 88, cyclohexyl-diphenylmethanol], the melting point lay in the range of 76 to 78 °C. Moreover, in data set [1], the inhibition at 10 µM turned out to be 94% and the IC50 was 9500 nM. Also, the IC50 in data set [2] (setting [4]) was determined as 862 nM. Moreover, in data set [2], the inhibition at 10 µM was 99%.
On to `N#CC(c1ccccc1)(c1ccccc1)C1CCCCC1` [Compound 89, cyclohexyl-diphenylacetonitrile], for which the melting point fell in the range of 117.5 to 119 °C. Moreover, in data set [1], the inhibition at 10 µM was determined as 98% and the IC50 worked out at 900 nM. Also, in data set [2] (setting [4]), the IC50 was 6130 nM. Further, the inhibition at 10 µM in data set [2] was found to be 70.2%.
`NC(=O)C(c1ccccc1)(c1ccccc1)C1CCCCC1` [Compound 90, Cyclohexyl-diphenylacetamide]: the inhibition at 10 µM was determined as 86% in data set [1] and 98.3% in data set [2]. The results for the IC50 in data set [1] and in data set [2] (setting [4]) were 3000 nM and 72 nM, respectively.

As usually defined, the melting point is the temperature of the solid-liquid transition.
